What all share (type): biochemical
The target of test [1] is PI3K (p110β/p85α) (Homo sapiens, UniProt P42338). Description: PI3Kβ assay (ADP-Glo Kinase Assay). The following applies: read-out: Enzyme activity IC50 PI3Kβ. For orientation: In ADP-Glo the light output rises with the ADP produced.
In test [2] the target is PI3K (p110δ/p85α) (Homo sapiens, UniProt O00329). Description: PI3Kδ assay (ADP-Glo Kinase Assay). The following applies: recombinant enzyme; IC50 (nM) or max inhibition (%) at 0.5 μM. The procedure:
Compounds disclosed herein were tested for inhibition of PI3Kδ kinase activity using commercial ADP-Glo™ Kinase Assay (Promega Corporation) and following the manufacture's instruction. Briefly, recombinant PI3K (p110δ/p85α) enzyme, lipid kinase substrate and a serial dilution of compounds disclosed herein were incubated for 0.5 hr at room temperature. ATP was added to initiate the kinase reaction. After incubation for 1 hr at room temperature, ADP-Glo™ reagent was added to terminate the kinase reaction and deplete the remaining ATP. After incubation for 1 hr at room temperature, kinase detection reagent was added to simultaneously convert ADP to ATP and allow the newly synthesized ATP to be measured using a luciferase/luciferin reaction. After incubation for 0.5 hr at room temperature, the luminescence generated was measured on a PHERAstar FS plate reader (BMG LABTECH). The residual enzyme activity in presence of increasing concentrations of compounds was calculated based on the luminescence. The IC50 for each compound was derived from fitting the data to the four-parameter logistic equation by Graphpad Prism software.

Test [3] concerns the target PI3K (p110γ) (Homo sapiens, UniProt P48736). Briefly: PI3Kγ assay (ADP-Glo Kinase Assay). The conditions noted are these: recombinant enzyme; IC50 (nM) or max inhibition (%) at 0.5 μM.
For test [4], the target named is PI3K (p110α/p85α) (Homo sapiens, UniProt P42336). Description: PI3Kα assay (ADP-Glo Kinase Assay). The conditions noted are these: recombinant enzyme; IC50 (nM) or max inhibition (%) at 0.5 μM.
PI3K (p110α/p85α), sequence (P42336 whole entry): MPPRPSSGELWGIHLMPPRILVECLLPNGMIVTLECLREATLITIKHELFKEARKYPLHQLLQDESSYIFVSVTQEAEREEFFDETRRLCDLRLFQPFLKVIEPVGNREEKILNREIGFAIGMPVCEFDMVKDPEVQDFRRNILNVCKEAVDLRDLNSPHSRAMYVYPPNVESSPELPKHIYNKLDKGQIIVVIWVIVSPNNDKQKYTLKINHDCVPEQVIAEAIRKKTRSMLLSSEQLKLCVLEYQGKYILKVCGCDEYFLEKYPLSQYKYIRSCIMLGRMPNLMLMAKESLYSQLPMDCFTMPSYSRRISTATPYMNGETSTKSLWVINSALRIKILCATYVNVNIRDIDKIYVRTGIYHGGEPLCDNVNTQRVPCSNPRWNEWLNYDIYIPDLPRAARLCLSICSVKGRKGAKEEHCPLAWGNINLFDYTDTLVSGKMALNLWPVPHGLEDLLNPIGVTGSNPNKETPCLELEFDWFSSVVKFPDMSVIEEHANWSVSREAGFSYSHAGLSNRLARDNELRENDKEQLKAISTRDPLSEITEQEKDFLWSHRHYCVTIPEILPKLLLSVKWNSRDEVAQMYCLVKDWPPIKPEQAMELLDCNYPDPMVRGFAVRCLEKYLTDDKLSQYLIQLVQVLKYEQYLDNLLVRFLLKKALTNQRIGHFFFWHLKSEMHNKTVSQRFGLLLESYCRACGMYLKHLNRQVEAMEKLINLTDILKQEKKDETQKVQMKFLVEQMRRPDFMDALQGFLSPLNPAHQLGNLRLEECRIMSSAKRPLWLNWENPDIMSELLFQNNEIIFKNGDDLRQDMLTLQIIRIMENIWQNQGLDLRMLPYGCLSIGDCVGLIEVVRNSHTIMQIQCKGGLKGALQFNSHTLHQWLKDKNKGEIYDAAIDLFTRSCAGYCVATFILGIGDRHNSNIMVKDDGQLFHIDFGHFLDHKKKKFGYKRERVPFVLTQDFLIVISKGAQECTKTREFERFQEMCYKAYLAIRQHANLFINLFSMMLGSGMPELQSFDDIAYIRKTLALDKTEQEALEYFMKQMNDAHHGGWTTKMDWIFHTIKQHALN
PI3K (p110α/p85α), sequence (P27986 whole entry partner): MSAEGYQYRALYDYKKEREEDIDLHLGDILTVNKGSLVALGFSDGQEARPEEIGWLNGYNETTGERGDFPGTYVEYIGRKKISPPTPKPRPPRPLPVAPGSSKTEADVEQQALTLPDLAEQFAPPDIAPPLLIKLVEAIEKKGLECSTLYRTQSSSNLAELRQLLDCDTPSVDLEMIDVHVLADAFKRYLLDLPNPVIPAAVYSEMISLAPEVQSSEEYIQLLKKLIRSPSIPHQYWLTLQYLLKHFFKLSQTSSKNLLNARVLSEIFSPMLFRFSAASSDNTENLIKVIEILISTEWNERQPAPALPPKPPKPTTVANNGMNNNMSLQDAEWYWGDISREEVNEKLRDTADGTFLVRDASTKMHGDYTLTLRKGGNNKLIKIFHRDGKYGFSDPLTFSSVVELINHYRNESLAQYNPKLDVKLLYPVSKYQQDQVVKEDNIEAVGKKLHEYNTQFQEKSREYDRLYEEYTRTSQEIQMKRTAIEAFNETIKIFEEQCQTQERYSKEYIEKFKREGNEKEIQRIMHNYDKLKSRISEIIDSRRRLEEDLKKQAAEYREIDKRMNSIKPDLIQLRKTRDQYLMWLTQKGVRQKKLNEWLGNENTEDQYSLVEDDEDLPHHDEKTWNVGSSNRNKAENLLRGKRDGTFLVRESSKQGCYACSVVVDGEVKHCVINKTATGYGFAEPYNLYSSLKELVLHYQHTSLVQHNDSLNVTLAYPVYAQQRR

PI3K (p110γ), sequence (P48736 whole entry): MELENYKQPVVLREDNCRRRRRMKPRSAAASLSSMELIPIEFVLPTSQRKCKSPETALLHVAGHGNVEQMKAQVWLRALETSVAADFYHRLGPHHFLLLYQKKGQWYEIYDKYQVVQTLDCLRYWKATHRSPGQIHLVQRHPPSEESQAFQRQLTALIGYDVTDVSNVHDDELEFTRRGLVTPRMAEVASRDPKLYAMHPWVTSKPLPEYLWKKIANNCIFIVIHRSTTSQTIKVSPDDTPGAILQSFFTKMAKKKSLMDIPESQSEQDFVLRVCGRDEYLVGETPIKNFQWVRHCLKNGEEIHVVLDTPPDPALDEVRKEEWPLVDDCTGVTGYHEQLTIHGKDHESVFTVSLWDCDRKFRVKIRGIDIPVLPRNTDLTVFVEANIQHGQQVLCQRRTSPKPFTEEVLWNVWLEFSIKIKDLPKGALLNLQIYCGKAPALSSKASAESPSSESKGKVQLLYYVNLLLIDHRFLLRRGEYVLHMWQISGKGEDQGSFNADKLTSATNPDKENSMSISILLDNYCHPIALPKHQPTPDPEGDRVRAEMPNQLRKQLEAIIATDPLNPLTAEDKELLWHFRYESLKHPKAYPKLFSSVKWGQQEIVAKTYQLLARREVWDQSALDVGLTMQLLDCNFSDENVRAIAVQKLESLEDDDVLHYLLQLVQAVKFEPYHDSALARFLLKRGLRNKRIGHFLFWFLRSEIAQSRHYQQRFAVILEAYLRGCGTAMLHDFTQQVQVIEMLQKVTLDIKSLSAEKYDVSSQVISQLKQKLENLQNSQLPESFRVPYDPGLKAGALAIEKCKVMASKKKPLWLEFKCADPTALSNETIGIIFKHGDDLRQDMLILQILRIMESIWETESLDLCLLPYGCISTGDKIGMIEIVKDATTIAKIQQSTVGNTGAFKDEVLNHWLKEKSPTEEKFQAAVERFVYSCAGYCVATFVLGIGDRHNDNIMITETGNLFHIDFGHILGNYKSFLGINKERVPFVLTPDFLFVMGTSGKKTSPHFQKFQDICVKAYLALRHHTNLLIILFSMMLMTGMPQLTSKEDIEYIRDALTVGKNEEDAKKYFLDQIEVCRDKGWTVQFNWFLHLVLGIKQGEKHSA
PI3K (p110δ/p85α), sequence (O00329 whole entry): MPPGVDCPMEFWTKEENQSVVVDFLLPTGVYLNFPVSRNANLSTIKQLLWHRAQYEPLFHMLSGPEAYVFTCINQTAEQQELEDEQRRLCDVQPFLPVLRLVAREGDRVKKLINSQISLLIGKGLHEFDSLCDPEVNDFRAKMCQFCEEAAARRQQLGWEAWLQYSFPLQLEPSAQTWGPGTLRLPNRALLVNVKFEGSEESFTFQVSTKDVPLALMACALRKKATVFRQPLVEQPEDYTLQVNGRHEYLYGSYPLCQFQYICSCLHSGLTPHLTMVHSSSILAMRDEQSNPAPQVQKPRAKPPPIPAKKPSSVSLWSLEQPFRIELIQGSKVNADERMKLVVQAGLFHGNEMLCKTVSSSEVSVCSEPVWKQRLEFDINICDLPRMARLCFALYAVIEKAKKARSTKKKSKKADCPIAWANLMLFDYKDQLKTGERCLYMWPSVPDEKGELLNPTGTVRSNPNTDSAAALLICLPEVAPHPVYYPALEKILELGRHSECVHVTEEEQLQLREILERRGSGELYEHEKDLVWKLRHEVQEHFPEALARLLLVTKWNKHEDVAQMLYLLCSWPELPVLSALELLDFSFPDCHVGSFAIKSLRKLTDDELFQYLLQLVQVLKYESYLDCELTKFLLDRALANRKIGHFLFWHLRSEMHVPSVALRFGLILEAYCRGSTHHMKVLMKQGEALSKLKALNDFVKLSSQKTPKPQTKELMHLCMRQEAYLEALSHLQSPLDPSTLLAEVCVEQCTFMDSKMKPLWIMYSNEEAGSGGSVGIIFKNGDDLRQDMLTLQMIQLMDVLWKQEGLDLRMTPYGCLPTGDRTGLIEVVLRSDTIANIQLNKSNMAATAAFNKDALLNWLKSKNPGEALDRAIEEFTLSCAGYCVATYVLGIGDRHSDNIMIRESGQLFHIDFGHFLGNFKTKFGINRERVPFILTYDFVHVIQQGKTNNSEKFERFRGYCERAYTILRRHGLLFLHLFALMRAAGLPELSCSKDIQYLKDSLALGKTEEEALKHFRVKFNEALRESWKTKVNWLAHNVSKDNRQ
PI3K (p110δ/p85α), sequence (P27986 whole entry partner): as the sequence (P27986 whole entry partner) above
PI3K (p110β/p85α), sequence (P42338 whole entry): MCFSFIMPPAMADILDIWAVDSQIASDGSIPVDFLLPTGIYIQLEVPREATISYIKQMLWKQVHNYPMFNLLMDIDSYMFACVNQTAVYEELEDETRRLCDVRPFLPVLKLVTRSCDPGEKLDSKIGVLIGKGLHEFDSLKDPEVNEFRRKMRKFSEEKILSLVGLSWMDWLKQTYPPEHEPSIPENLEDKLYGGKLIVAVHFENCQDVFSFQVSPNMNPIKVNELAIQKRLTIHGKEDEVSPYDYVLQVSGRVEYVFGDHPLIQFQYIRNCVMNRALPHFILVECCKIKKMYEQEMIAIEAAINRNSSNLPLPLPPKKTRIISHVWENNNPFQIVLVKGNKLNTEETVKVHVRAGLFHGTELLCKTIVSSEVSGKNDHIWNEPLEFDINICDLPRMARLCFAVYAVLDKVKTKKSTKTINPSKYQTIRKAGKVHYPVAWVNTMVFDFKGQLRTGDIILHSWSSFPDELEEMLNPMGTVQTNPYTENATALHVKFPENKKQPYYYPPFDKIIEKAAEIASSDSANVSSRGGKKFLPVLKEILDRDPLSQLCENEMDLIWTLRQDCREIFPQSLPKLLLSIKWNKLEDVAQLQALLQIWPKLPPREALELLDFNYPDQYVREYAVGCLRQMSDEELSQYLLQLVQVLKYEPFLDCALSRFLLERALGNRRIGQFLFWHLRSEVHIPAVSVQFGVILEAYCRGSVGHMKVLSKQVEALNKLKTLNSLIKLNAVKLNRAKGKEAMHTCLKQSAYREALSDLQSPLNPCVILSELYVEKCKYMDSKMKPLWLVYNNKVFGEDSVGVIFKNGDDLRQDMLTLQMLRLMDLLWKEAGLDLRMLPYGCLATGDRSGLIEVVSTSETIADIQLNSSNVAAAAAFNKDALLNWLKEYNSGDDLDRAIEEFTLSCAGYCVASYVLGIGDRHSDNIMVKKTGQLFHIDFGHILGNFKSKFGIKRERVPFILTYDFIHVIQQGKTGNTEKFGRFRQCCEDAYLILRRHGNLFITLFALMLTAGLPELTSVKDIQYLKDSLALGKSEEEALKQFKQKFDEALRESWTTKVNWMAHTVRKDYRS
PI3K (p110β/p85α), sequence (P27986 whole entry partner): as the sequence (P27986 whole entry partner) above

Regarding `Cc1nc([C@@H](C)c2cc(Cl)c(F)c(C(=O)NC[C@@H]3CCOC3)c2OC(C)C)n2ccnc(N)c12` [Compound 35, 3-((S)-1-(8-amino-1-methylimidazo[1,5-a]pyrazin-3-yl)ethyl)-5-chloro-6-fluoro-2-isopropoxy-N-4(((S)-tetrahydrofuran-3-yl)methyl)benzamide], the IC50 in test [1] worked out at 19 µM; in test [2], 1.3 nM; in test [3], 6000 nM; in test [4], 46000 nM.

Turning to `COc1ccc([C@@H](C)NC(=O)c2c(F)c(Cl)cc([C@H](C)c3nc(C)c4c(N)nccn34)c2OC(C)C)cc1` [Compound 36, 3-((S)-1-(8-amino-1-methylimidazo[1,5-a]pyrazin-3-yl)ethyl)-5-chloro-6-fluoro-2-isopropoxy-N-((R)-1-(4-methoxyphenyl)ethyl)benzamide], the IC50 in test [1] was found to be 13 µM; in test [2] it was 2 nM; in test [3], 460 nM; in test [4], 9500 nM.

On to `Cc1nc([C@@H](C)c2cc(Cl)c(F)c(C(=O)N[C@H]3CCC[C@@H]3O)c2OC(C)C)n2ccnc(N)c12` [Compound 37, 3-((S)-1-(8-amino-1-methylimidazo[1,5-a]pyrazin-3-yl)ethyl)-5-chloro-6-fluoro-2-isopropoxy-N-((1S,2S)-2-hydroxycyclopentyl)benzamide], for which the concentration for half-maximal inhibition (IC50) in test [1] is 11 µM; in test [2] it was 0.56 nM; in test [3] it was 2500 nM; in test [4] it was 11000 nM.

Turning to `Cc1nc([C@@H](C)c2cc(Cl)c(F)c(C(=O)N[C@]3(C)C[C@H](O)C3)c2OC(C)C)n2ccnc(N)c12` [Compound 38, 3-((S)-1-(8-amino-1-methylimidazo[1,5-a]pyrazin-3-yl)ethyl)-5-chloro-6-fluoro-2-isopropoxy-N-((1S,3R)-3-hydroxy-1-methylcyclobutyl)benzamide], the concentration for half-maximal inhibition (IC50) in test [1] was found to be 25 µM; in test [2], 1.4 nM; in test [3], 3200 nM; in test [4], 6100 nM.

Consider `Cc1nc([C@@H](C)c2cc(Cl)c(F)c(C(=O)N[C@]3(C)C[C@@H](O)C3)c2OC(C)C)n2ccnc(N)c12` [Compound 39, 3-((S)-1-(8-amino-1-methylimidazo[1,5-a]pyrazin-3-yl)ethyl)-5-chloro-6-fluoro-N-((1r,3S)-3-hydroxy-1-methylcyclobutyl)-2-isopropoxybenzamide], for which the IC50 came to 2.3 µM in test [1], 0.9 nM in test [2], 28000 nM in test [3] and 10000 nM in test [4].

For the molecule `CCCNC(=O)c1c(F)c(Cl)cc([C@H](C)c2nc(C)c3c(N)nccn23)c1OC(C)C` [Compound 41, (S)-3-(1-(8-amino-1-methylimidazo[1,5-a]pyrazin-3-yl)ethyl)-5-chloro-6-fluoro-2-isopropoxy-N-propylbenzamide], the IC50 in test [1] amounted to 4.9 µM; in test [2], 0.99 nM; in test [3], 5500 nM; in test [4], 20000 nM.

`Cc1nc([C@@H](C)c2cc(Cl)c(F)c(C(=O)NCC3CC3)c2OC(C)C)n2ccnc(N)c12` [Compound 42, (S)-3-(1-(8-amino-1-methylimidazo[1,5-a]pyrazin-3-yl)ethyl)-5-chloro-N-(cyclopropylmethyl)-6-fluoro-2-isopropoxybenzamide]: the half-maximal inhibitory concentration (IC50) was 21 µM in test [1], 1.2 nM in test [2], 4800 nM in test [3] and 36000 nM in test [4].

Turning to `Cc1nc([C@@H](C)c2cc(Cl)c(F)c(C(=O)N3C[C@H](C)O[C@@H](C)C3)c2OC(C)C)n2ccnc(N)c12` [Compound 43, (3-((S)-1-(8-amino-1-methylimidazo[1,5-a]pyrazin-3-yl)ethyl)-5-chloro-6-fluoro-2-isopropoxyphenyl)((2S,6S)-2,6-dimethylmorpholino)methanone], the IC50 in test [1] is above 50 µM; in test [2] it was 2.2 nM; in test [3], 3400 nM; in test [4], 21000 nM.

Consider `Cc1nc([C@@H](C)c2cc(Cl)c(F)c(C(=O)N[C@@H]3CCCOC3)c2OC(C)C)n2ccnc(N)c12` [Compound 44, 3-((S)-1-(8-amino-1-methylimidazo[1,5-a]pyrazin-3-yl)ethyl)-5-chloro-6-fluoro-2-isopropoxy-N-((R)-tetrahydro-2H-pyran-3-yl)benzamide], for which the IC50 turned out to be 30 µM in test [1], 0.74 nM in test [2], 5000 nM in test [3] and 20000 nM in test [4].

For `Cc1nc([C@@H](C)c2cc(Cl)c(F)c(C(=O)N[C@H]3CCCOC3)c2OC(C)C)n2ccnc(N)c12` [Compound 45, 3-((S)-1-(8-amino-1-methylimidazol[1,5-a]pyrazin-3-yl)ethyl)-5-chloro-6-fluoro-2-isopropoxy-N-((S)-tetrahydro-2H-pyran-3-yl)benzamide], the IC50 in test [1] was determined as 32 µM; in test [2] it was 1.1 nM; in test [3], 2800 nM; in test [4], 16000 nM.

Regarding `Cc1nc([C@@H](C)c2cc(Cl)c(F)c(C(=O)N[C@H]3CCCC[C@@H]3O)c2OC(C)C)n2ccnc(N)c12` [Compound 46, 3((S)-1-(8-amino-1-methylimidazo[1,5-a]pyrazin-3-yl)ethyl)-5-chloro-6-fluoro-N-((1S,2S)-2-hydroxycyclohexyl)-2-isopropoxybenzamide], the IC50 in test [1] is 39 µM; in test [2], 0.94 nM; in test [3] it was 2100 nM; in test [4] it was 9700 nM.

As to `Cc1nc([C@@H](C)c2cc(Cl)c(F)c(C(=O)N[C@H]3CCCC[C@H]3O)c2OC(C)C)n2ccnc(N)c12` [Compound 47, 3-((S)-1-(8-amino-1-methylimidazo[1,5-a]pyrazin-3-yl)ethyl)-5-chloro-6-fluoro-N-((1S,2R)-2-hydroxycyclohexyl)-2-isopropoxybenzamide], the half-maximal inhibitory concentration (IC50) in test [1] came to 26 µM; in test [2], 2.5 nM; in test [3] it was 5800 nM; in test [4] it was 27000 nM.

In the case of `Cc1nc([C@@H](C)c2cc(Cl)c(F)c(C(=O)NCC3CCCOC3)c2OC(C)C)n2ccnc(N)c12` (stereo partly drawn) [Compound 50, 3-((S)-1-(8-amino-1-methylimidazo[1,5-a]pyrazin-3-yl)ethyl)-5-chloro-6-fluoro-2-isopropoxy-N-((tetrahydro-2H-pyran-3-yl)methyl)benzamide], the 50% inhibitory concentration (IC50) worked out at 20 µM in test [1], 1.2 nM in test [2], 6100 nM in test [3] and 15000 nM in test [4].

For `Cc1nc([C@@H](C)c2cc(Cl)c(F)c(C(=O)NCC3CCOCC3)c2OC(C)C)n2ccnc(N)c12` [Compound 51, (S)-3-(1-(8-amino-1-methylimidazo[1,5-a]pyrazin-3-yl)ethyl)-5-chloro-6-fluoro-2-isopropoxy-N-((tetrahydro-2H-pyran-4-yl)methyl)benzamide], the half-inhibitory concentration (IC50) in test [1] is 6.4 µM; in test [2], 0.97 nM; in test [3], 4500 nM; in test [4], 27000 nM.

For `Cc1nc([C@@H](C)c2cc(Cl)c(F)c(C(=O)N3CC4CCC(C3)O4)c2OC(C)C)n2ccnc(N)c12` [Compound 52, (3-((S)-1-(8-amino-1-methylimidazo[1,5-a]pyrazin-3-yl)ethyl)-5-chloro-6-fluoro-2-isopropoxyphenyl)(8-oxa-3-azabicyclo[3.2.1]octan-3-yl)methanone], the half-maximal inhibitory concentration (IC50) in test [1] is 40 µM; in test [2] it was 1.4 nM; in test [3], 2500 nM; in test [4], 10000 nM.

As to `Cc1nc([C@@H](C)c2cc(Cl)c(F)c(C(=O)N[C@@H]3CC[C@@H](O)C3)c2OC(C)C)n2ccnc(N)c12` [Compound 53, 3-((S)-1-(8-amino-1-methylimidazo[1,5-a]pyrazin-3-yl)ethyl)-5-chloro-6-fluoro-N-((1R,3R)-3-hydroxycyclopentyl)-2-isopropoxybenzamide], the IC50 in test [1] is 11 µM; in test [2], 0.68 nM; in test [3], 2400 nM; in test [4], 14000 nM.

Turning to `Cc1nc([C@@H](C)c2cc(Cl)c(F)c(C(=O)NCC3(O)COC3)c2OC(C)C)n2ccnc(N)c12` [Compound 55, (S)-3-(1-(8-amino-1-methylimidazo[1,5-a]pyrazin-3-yl)ethyl)-5-chloro-6-fluoro-N-((3-hydroxyoxetan-3-yl)methyl)-2-isopropoxybenzamide], the half-maximal inhibitory concentration (IC50) in test [1] came to 11 µM; in test [2], 1.8 nM; in test [3], 2200 nM; in test [4] it was 13000 nM.

As for `Cc1nc([C@@H](C)c2cc(Cl)c(F)c(C(=O)NC3(CN4CCN(CC5CC5)CC4)CC3)c2OC(C)C)n2ccnc(N)c12` [Compound 56, (S)-3-(1-(8-amino-1-methylimidazo[1,5-a]pyrazin-3-yl)ethyl)-5-chloro-N-(1-((4-(cyclopropylmethyl)piperazin-1-yl)methyl)cyclopropyl)-6-fluoro-2-isopropoxybenzamide], the IC50 in test [1] was 44 µM; in test [2], 1.9 nM; in test [3], 4500 nM; in test [4], 28000 nM.

As for `Cc1nc([C@@H](C)c2cc(Cl)c(F)c(C(=O)NC[C@H](C)O)c2OC(C)C)n2ccnc(N)c12` [Compound 57, 3-((S)-1-(8-amino-1-methylimidazo[1,5-a]pyrazin-3-yl)ethyl)-5-chloro-6-fluoro-N-((S)-2-hydroxypropyl)-2-isopropoxybenzamide], the IC50 in test [1] was determined as 12 µM; in test [2], 1.1 nM; in test [3], 4900 nM; in test [4] it was 18000 nM.

A word on the IC50: it is the midpoint of a concentration-inhibition curve.

The record behind these values is US11905294B2, “Imidazo[1,5-a]pyrazine derivatives as PI3Kδ inhibitors” (BEIGENE, LTD., priority 2017, dated 2024).
